The target of the assay is T1, μ-opioid receptor (Homo sapiens, UniProt P35372).
T1 construct: purchased Perkin Elmer, Shelton, Conn
The experiment in a line: μ-opioid receptor [35S]GTPγS functional assay. It is filed as biochemical. Conditions: for Emax: maximal effect relative to DAMGO. Here is the method:
[^35S]GTPγS functional assays were conducted using freshly thawed μ-receptor membranes (Perkin Elmer, Shelton, Conn.). Assay reactions were prepared by sequentially adding the following reagents to binding buffer (100 mM NaCl, 10 mM MgCl2, 20 mM HEPES, pH 7.4) on ice (final concentrations indicated): membrane protein (0.026 mg/mL), saponin ([…]), GDP ([…]) and [^35S]GTPγS (0.20 nM; Perkin Elmer, Shelton, Conn.). The prepared membrane solution (190 μl/well) was transferred to 96-shallow well polypropylene plates containing 10 μl of 20× concentrated stock solutions of the agonist [D-Ala^2, N-methyl-Phe^4 Gly-ol^5]-enkephalin (DAMGO) prepared in dimethyl sulfoxide (DMSO). Plates were incubated for 30 min at about 25° C. with shaking. Reactions were terminated by rapid filtration onto 96-well Unifilter GF/B filter plates (Perkin Elmer, Shelton, Conn.) using a 96-well tissue harvester (Perkin Elmer, Shelton, Conn.) followed by three filtration washes with 200 μl of ice-cold wash buffer (10 mM NaH2PO4, 10 mM Na2HPO4, pH 7.4). Filter plates were subsequently dried at 50° C. for 2-3 hours. BetaScint scintillation cocktail (Perkin Elmer, Shelton, Conn.) was added (50 μl/well) and plates were counted using a Packard Top-Count for 1 min/well. Data were analyzed using the sigmoidal dose-response curve fitting functions in GraphPad PRISM v. 3.0, or an in-house function for non-linear, sigmoidal dose-response curve-fitting.
μ GTP EC50 is the concentration of a compound providing 50% of the maximal response for the compound at a μ-opioid receptor.
μ GTP Emax (%) is the maximal effect elicited by a compound relative to the effect elicited by DAMGO, a standard agonist. Generally, the μ GTP Emax (%) value measures the efficacy of a compound to treat or prevent pain or other Conditions.
For orientation: GTPγS is a poorly hydrolysed GTP analogue; its binding reports G protein activation.

Molecules are shown by their SMILES.

T1 sequence (P35372 whole entry, species assumed): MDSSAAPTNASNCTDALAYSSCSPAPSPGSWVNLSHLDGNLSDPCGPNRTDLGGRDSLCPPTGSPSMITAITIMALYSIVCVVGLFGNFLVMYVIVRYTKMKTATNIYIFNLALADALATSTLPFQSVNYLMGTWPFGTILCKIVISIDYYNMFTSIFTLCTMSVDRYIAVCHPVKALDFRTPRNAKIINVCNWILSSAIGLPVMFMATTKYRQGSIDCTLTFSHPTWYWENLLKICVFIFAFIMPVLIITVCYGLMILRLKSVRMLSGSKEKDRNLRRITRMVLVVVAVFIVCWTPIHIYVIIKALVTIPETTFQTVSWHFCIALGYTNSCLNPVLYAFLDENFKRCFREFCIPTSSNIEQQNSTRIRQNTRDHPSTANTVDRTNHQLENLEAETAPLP

The EC50 is the concentration needed to bring the measured effect to its halfway point. Lower therefore signals greater potency. One may read the Emax as the maximal effect, on the per cent scale that the assay sets. On to `COc1ccc2c(c1)[C@]13CCN(C)[C@H](C2)[C@@H]1CC[C@@]1(C3)NC(=O)NC1=O` [Compound 2, (4S,4b′S,8a′R,9′R)-3′-methoxy-11′-methyl-8′,8a′,9′,10′-tetrahydro-5′H,7′H-spiro[imidazolidine-4,6′-[9,4b](epiminoethano)phenanthrene]-2,5-dione], for which the EC50 turned out to be 18 ± 1.1 µM and the Emax stood at 75.7 ± 0.88%.
For the compound `COc1ccc2c(c1)[C@]13CCN(CCN(C)C)[C@H](C2)[C@]1(O)CC[C@@]1(C3)NC(=O)NC1=O` [Compound 3, (4S,4b′R,8a′S,9′R)-11′-(2-(dimethylamino)ethyl)-8a′-hydroxy-3′-methoxy-8′,8a′,9′,10′-tetrahydro-5′H,7′H-spiro[imidazolidine-4,6′-[9,4b](epiminoethano)phenanthrene]-2,5-dione], the EC50 was above 20 µM and the Emax was -0.8%.
The corresponding values for `COc1ccc2c(c1)[C@]13CCN(CCCN(C)C)[C@H](C2)[C@]1(O)CC[C@@]1(C3)NC(=O)NC1=O` [Compound 4, (4S,4b′R,8a′S,9′R)-11′-(3-(dimethylamino)propyl)-8a′-hydroxy-3′-methoxy-8′,8a′,9′,10′-tetrahydro-5′H,7′H-spiro[imidazolidine-4,6′-[9,4b](epiminoethano)phenanthrene]-2,5-dione] are above 20 µM and -1 ± 0.003%.
Regarding `CCN1C(=O)N(CC)[C@]2(CC[C@@]3(O)[C@H]4Cc5ccc(OC)cc5[C@@]3(CCN4CCN(C)C)C2)C1=O` [Compound 8, (4S,4b′R,8a′S,9′R)-11′-(2-(dimethylamino)ethyl)-1,3-diethyl-8a′-hydroxy-3′-methoxy-8′,8a′,9′,10′-tetrahydro-5′H,7′H-spiro[imidazolidine-4,6′-[9,4b](epiminoethano)phenanthrene]-2,5-dione], the EC50 was above 20 µM and the Emax is 1%.
For `COc1ccc2c(c1)[C@]13CCN(CCCN(C)C)[C@H](C2)[C@]1(O)CC[C@]1(C3)C(=O)N(CC2CC2)C(=O)N1CC1CC1` [Compound 13, (4S,4b′R,8a′S,9′R)-1,3-bis(cyclopropylmethyl)-11′-(3-(dimethylamino)propyl)-8a′-hydroxy-3′-methoxy-8′,8a′,9′,10′-tetrahydro-5′H,7′H-spiro[imidazolidine-4,6′-[9,4b]-(epiminoethano)phenanthrene]-2,5-dione], the EC50 is above 20 µM and the Emax is 1%.
The corresponding values for `CCN1C(=O)N(CC)[C@]2(CC[C@@]3(O)[C@H]4Cc5ccc(OC)cc5[C@@]3(CCN4CCCN(C)C)C2)C1=O` [Compound 14, (4S,4b′R,8a′S,9′R)-11′-(3-(dimethylamino)propyl)-1,3-diethyl-8a′-hydroxy-3′-methoxy-8′,8a′,9′,10′-tetrahydro-5′H,7′H-spiro[imidazolidine-4,6′-[9,4b](epiminoethano)-phenanthrene]-2,5-dione] are above 20 µM and 1%.
The corresponding values for `COc1ccc2c(c1)[C@]13CCN(CCN(C)C)[C@H](C2)[C@]1(O)CC[C@]1(C3)C(=O)N(CC2CC2)C(=O)N1CC1CC1` [Compound 15, (4S,4b′R,8a′S,9′R)-1,3-bis(cyclopropylmethyl)-11′-(2-(dimethylamino)ethyl)-8a′-hydroxy-3′-methoxy-8′,8a′,9′,10′-tetrahydro-5′H,7′H-spiro[imidazolidine-4,6′-[9,4b]-(epiminoethano)phenanthrene]-2,5-dione] are above 20 µM and 1%.
Take `COc1ccc2c(c1)[C@]13CCN[C@H](C2)[C@]1(O)CC[C@]1(C3)C(=O)N(CC2CC2)C(=O)N1CC1CC1` [Compound 17, (4S,4b′R,8a′S,9′R)-1,3-bis(cyclopropylmethyl)-8a′-hydroxy-3′-methoxy-8′,8a′,9′,10′-tetrahydro-5′H,7′H-spiro[imidazolidine-4,6′-[9,4b](epiminoethano)phenanthrene]-2,5-dione]: the EC50 is above 20 µM and the Emax came to 26 ± 5.51%.
On to `CCN1C(=O)N(CC)[C@]2(CC[C@@]3(O)[C@H]4Cc5ccc(OC)cc5[C@@]3(CCN4)C2)C1=O` [Compound 18, (4S,4b′R,8a′S,9′R)-1,3-diethyl-8a′-hydroxy-3′-methoxy-8′,8a′,9′,10′-tetrahydro-5′H,7′H-spiro[imidazolidine-4,6′-[9,4b](epiminoethano)phenanthrene]-2,5-dione], for which the EC50 was above 20 µM and the Emax turned out to be 35.7 ± 1.2%.
In the same order, the values of `CN1CC[C@]23C[C@]4(CC[C@H]2[C@H]1Cc1ccc(O)cc13)NC(=O)NC4=O` [Compound 19, (4S,4b′S,8a′R,9′R)-3′-hydroxy-11′-methyl-8′,8a′,9′,10′-tetrahydro-5′H,7′H-spiro[imidazolidine-4,6′-[9,4b](epiminoethano)phenanthrene]-2,5-dione] are 0.097 ± 0.0115 µM and 54.6 ± 3.04%.
In the same order, the values of `CCN1C(=O)N(CC)[C@]2(CC[C@@]3(O)[C@H]4Cc5ccc(O)cc5[C@@]3(CCN4)C2)C1=O` [Compound 20, (4S,4b′R,8a′S,9′R)-1,3-diethyl-3′,8a′-dihydroxy-8′,8a′,9′,10′-tetrahydro-5′H,7′H-spiro[imidazolidine-4,6′-[9,4b](epiminoethano)phenanthrene]-2,5-dione] are 1.88 ± 0.252 µM and 28 ± 1.53%.
With `O=C1NC(=O)[C@@]2(CC[C@@]3(O)[C@H]4Cc5ccc(O)cc5[C@@]3(CCN4)C2)N1` [Compound 22, (4S,4b′R,8a′S,9′R)-3′,8a′-dihydroxy-8′,8a′,9′,10′-tetrahydro-5′H,7′H-spiro[imidazolidine-4,6′-[9,4b](epiminoethano)phenanthrene]-2,5-dione], the EC50 was 2.85 ± 0.216 µM and the Emax was 71.7 ± 2.6%.
In the same order, the values of `O=C1N(CC2CC2)C(=O)[C@@]2(CC[C@@]3(O)[C@H]4Cc5ccc(O)cc5[C@@]3(CCN4)C2)N1CC1CC1` [Compound 23, (4S,4b′R,8a′S,9′R)-1,3-bis(cyclopropylmethyl)-3′,8a′-dihydroxy-8′,8a′,9′,10′-tetrahydro-5′H,7′H-spiro[imidazolidine-4,6′-[9,4b](epiminoethano)phenanthrene]-2,5-dione] are 3.79 ± 0.287 µM and 15.7 ± 0.33%.
With `CCN1C(=O)N(CC)[C@]2(CC[C@@]3(O)[C@H]4Cc5ccc(O)cc5[C@@]3(CCN4CCc3ccccc3)C2)C1=O` [Compound 24, (4S,4b′R,8a′S,9′R)-1,3-diethyl-3′,8a′-dihydroxy-11′-phenethyl-8′,8a′,9′,10′-tetrahydro-5′H,7′H-spiro[imidazolidine-4,6′-[9,4b](epiminoethano)phenanthrene]-2,5-dione], the response was half-maximal at 0.073 ± 0.0197 µM (EC50) and the Emax is 65.3 ± 4.26%.
With `CN(C)CCN1CC[C@]23C[C@@]4(CC[C@@]2(O)[C@H]1Cc1ccc(O)cc13)C(=O)N(CC1CC1)C(=O)N4CC1CC1` [Compound 25, (4S,4b′R,8a′S,9′R)-1,3-bis(cyclopropylmethyl)-11′-(2-(dimethylamino)ethyl)-3′,8a′-dihydroxy-8′,8a′,9′,10′-tetrahydro-5′H,7′H-spiro[imidazolidine-4,6′-[9,4b](epiminoethano)-phenanthrene]-2,5-dione], the EC50 was above 20 µM and the Emax is 1%.
